Data as given in ChEMBL document CHEMBL5096208, “Installation of Pargyline, a LSD1 Inhibitor, in the HDAC Inhibitory Template Culminated in the Identification of a Tractable Antiprostate Cancer Agent” (J Med Chem, 2021).
Calls of active or inactive are those of the source. The rule behind the calls is not given here.

Assays:
PC-3 [1] = assay: Antiproliferative activity against human PC-3 cells assessed as cell growth inhibition incubated for 48 hrs by MTT assay; assay type: functional
DU-145 [2] = assay: Antiproliferative activity against human DU-145 cells assessed as cell growth inhibition incubated for 48 hrs by MTT assay; assay type: functional
PC-3 [3] = assay: Antiproliferative activity against human PC-3 cells assessed as cell growth inhibition at upto 10 uM; assay type: functional, cell-based; conditions: time 48.0 hrs
[4] = Toxicity in athymic nude mouse xenografted with human DU-145 cells assessed as change in body weight at 100 to 200 mg/kg, po administered every 2 days and measured upto 60 days; assay type: organism-based; conditions: in vivo, 1440 h, dose 100-200 mg/kg, time < 60 day
DU-145 [5] = assay: Antitumor activity against human DU-145 cells xenografted in athymic nude mouse assessed as tumor growth inhibition at 20 mg/kg, ip administered every 4 days for 5 doses and measured upto 60 days by caliper method relative to control; assay type: functional; conditions: DU-145, 1440 h, time <= 60 day, read-out: TGI
[6] = Toxicity in athymic nude mouse xenografted with human PC-3 cells assessed as change in body weight at 20 mg/kg, ip administered every 4 days for 4 doses and measured upto 25 days; assay type: organism-based; conditions: in vivo, 600 h, time < 25 day
[7] = Toxicity in athymic nude mouse xenografted with human DU-145 cells assessed as change in body weight at 50 mg/kg, po qd measured upto 60 days; assay type: organism-based; conditions: in vivo, 1440 h, time < 60 day
PC-3 [8] = assay: Antitumor activity against human PC-3 cells xenografted in athymic nude mouse assessed as tumor growth inhibition at 20 mg/kg, ip administered every 4 days for 4 doses and measured upto 25 days by caliper method relative to control; assay type: functional; conditions: PC-3, 600 h, time <= 25 day, read-out: TGI
[9] = Toxicity in athymic nude mouse xenografted with human DU-145 cells assessed as change in body weight at 20 mg/kg, ip administered every 4 days for 5 doses and measured upto 60 days; assay type: organism-based; conditions: in vivo, 1440 h, time < 60 day
[10] = Toxicity in athymic nude mouse xenografted with human PC-3 cells assessed as change in body weight at 50 to 100 mg/kg, po qd measured upto 25 days; assay type: organism-based; conditions: in vivo, 600 h, dose 50-100 mg/kg, time < 25 day

Structure (SMILES)	GI50 (PC-3 [1])	GI50 (DU-145 [2])	other results
CNC(=O)c1ccc(N2C(=S)N(c3ccc(C#N)c(C(F)(F)F)c3)C(=O)C2(C)C)cc1F [ENZALUTAMIDE]	> 10 µM	> 10 µM	
C#CCN(C)Cc1ccc(NC(=O)CCC(=O)NO)cc1	> 10 µM	> 10 µM	
C#CCN(C)Cc1ccccc1 [PARGYLINE]	197 µM	219 µM	
Cn1cc(-c2ccc(S(=O)(=O)n3ccc(/C=C/C(=O)Nc4ccccc4N)c3)cc2)cn1			Activity (PC-3 [3]): Active
C#CCN(C)Cc1cccc(NC(=O)CCCCCCCCC(=O)NO)c1	1.79 µM	2.94 µM	
C#CCN(C)Cc1ccc(NC(=O)CCCCC(=O)NO)cc1	> 10 µM	> 10 µM	
C#CCN(C)Cc1ccc(NCc2ccc(C(=O)NO)cc2)cc1	> 10 µM	> 10 µM	
C#CCN(C)Cc1ccc(NC(=O)CCCC(=O)NO)cc1	> 10 µM	> 10 µM	
C#CCN(C)Cc1ccc(NC(=O)CCCCCC(=O)NO)cc1	> 10 µM	> 10 µM	
CC(=O)O[C@H]1C(=O)[C@@]2(C)[C@H]([C@H](OC(=O)c3ccccc3)[C@]3(O)C[C@H](OC(=O)[C@H](O)[C@@H](NC(=O)c4ccccc4)c4ccccc4)C(C)=C1C3(C)C)[C@]1(OC(C)=O)CO[C@@H]1C[C@@H]2O [PACLITAXEL]			Activity [4]: Non-Toxic; inhibition in vivo at 20 mg/kg (DU-145 [5]): 47%; Activity [6]: Non-Toxic; Activity [7]: Non-Toxic; inhibition in vivo at 20 mg/kg (PC-3 [8]): 47.8%; Activity [9]: Non-Toxic; Activity [10]: Non-Toxic
C#CCN(C)Cc1ccc(NC(=O)CCCCCCCCC(=O)NO)cc1	4.26 µM	2.74 µM	
Nc1ccccc1NC(=O)c1ccc(CCCC(=O)Nc2ccc([C@H]3C[C@@H]3N)cc2)cc1			Activity (PC-3 [3]): Active
C#CCN(C)Cc1ccc(NC(=O)CCCCCCCC(=O)NO)cc1	7.16 µM	3.4 µM	
C[C@]12CC[C@H](O)CC1=CC[C@@H]1[C@@H]2CC[C@]2(C)C(c3cccnc3)=CC[C@@H]12 [ABIRATERONE]	> 10 µM	> 10 µM	
C#CCN(C)Cc1ccc(NC(=O)CCCCCCC(=O)NO)cc1	2.28 µM	1.51 µM	
C#CCN(C)Cc1cccc(NC(=O)CCCCCCCC(=O)NO)c1	4.07 µM	3.78 µM	

More lines, main results first:

GI50 (PC-3 [1])	GI50 (DU-145 [2])	Structure (SMILES)	other results
0.85 µM	0.54 µM	C#CCN(C)Cc1cccc(NCc2ccc(/C=C/C(=O)NO)cc2)c1	
> 10 µM	> 10 µM	C#CCN(C)Cc1cccc(NCc2ccc(C(=O)NO)cc2)c1	
0.75 µM	0.56 µM	C#CCN(C)Cc1ccc(NCc2ccc(/C=C/C(=O)NO)cc2)cc1	
> 10 µM	> 10 µM	C#CCN(C)Cc1cccc(NC(=O)CCC(=O)NO)c1	
1.23 µM	0.21 µM	C#CCN(C)Cc1cccc(NS(=O)(=O)c2cccc(/C=C/C(=O)NO)c2)c1	
0.71 µM	0.96 µM	C#CCN(C)Cc1ccc(NS(=O)(=O)c2ccc(/C=C/C(=O)NO)cc2)cc1	
0.367 µM	0.21 µM	C#CCN(C)Cc1ccc(NS(=O)(=O)c2cccc(/C=C/C(=O)NO)c2)cc1	
5.15 µM	9.75 µM	C#CCN(C)Cc1cccc(NC(=O)CCCCC(=O)NO)c1	
4.63 µM	4.29 µM	C#CCN(C)Cc1cccc(NC(=O)CCCCCC(=O)NO)c1	
2.23 µM	2.35 µM	C#CCN(C)Cc1cccc(NS(=O)(=O)c2ccc(/C=C/C(=O)NO)cc2)c1	
> 10 µM	> 10 µM	C#CCN(C)Cc1cccc(NC(=O)CCCC(=O)NO)c1	
